Laboratory results: patent US10624871B2, “Bismuth(III) compounds and methods thereof” (priority 2016, dated 2020)

Columns and labels:
E. coli (NDM-1+) = assay: Microdilution MIC and MBC assay, checkerboard FICI; type: cell-based; details: for MBC of MER with Bi(III) compound / MIC of MER with Bi(III) compound: Bi(III) compound at 32 μg mL^−1, E. coli (NDM-1+); for FIC Index: MER with Bi(III) compound, E. coli (NDM-1+)
[1] = Solubility of the bismuth complexes (Table 1); details: solvent named, or insoluble
K. pneumonia (NDM-1+) = assay: Microdilution MIC and MBC assay, FICI; type: cell-based; details: for MBC of MER with Bi(III) compound / MIC of MER with Bi(III) compound: Bi(III) compound at 32 μg mL^−1, K. pneumonia (NDM-1+); for FIC Index: MER with Bi(III) compound, K. pneumonia (NDM-1+)
VIM-2 = VIM-2 (Escherichia coli, UniProt Q5U7L7); assay: IC50 enzyme inhibition assay, MER hydrolysis; type: biochemical; details: Zn2-VIM-2, 1 h preincubation at 25° C., 100 μM MER
From the text: (§1) […]. The initial rate were extracted and calculated from each reaction curves.

NDM-1 = NDM-1 (Klebsiella pneumoniae, UniProt C7C422); assay: IC50 enzyme inhibition assay, MER hydrolysis; type: biochemical; details: Zn2-NDM-1 50 nM, 1 h preincubation at 25° C., 100 μM MER
NDM-1, sequence (C7C422 whole entry, looked up): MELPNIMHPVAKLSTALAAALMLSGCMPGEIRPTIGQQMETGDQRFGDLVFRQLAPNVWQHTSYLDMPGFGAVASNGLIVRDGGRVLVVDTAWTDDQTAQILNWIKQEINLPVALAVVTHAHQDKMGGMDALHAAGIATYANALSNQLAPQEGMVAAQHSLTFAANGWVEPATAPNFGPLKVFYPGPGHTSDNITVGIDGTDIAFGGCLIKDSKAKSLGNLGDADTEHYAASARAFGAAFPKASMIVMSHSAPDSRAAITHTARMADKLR
From the text: as §1

E. coli (IMP-4+) = assay: Microdilution MIC and MBC assay, FICI; type: cell-based
E. coli (VIM-2+) = assay: Microdilution MIC and MBC assay, FICI; type: cell-based
C. freundii (NDM-1+) = assay: Microdilution MIC and MBC assay, FICI; type: cell-based
[2] = Bi(III) compound at 32 μg mL−1, E. coli (IMP-4+)
[3] = Bi(III) compound at 32 μg mL−1, E. coli (VIM-2+)
[4] = Bi(III) compound at 32 μg mL^−1, C. feudii (NDM-1+)

| Compound | MBC of MER with Bi(III) compound (E. coli (NDM-1+)) [µg/mL] | MIC of MER with Bi(III) compound (E. coli (NDM-1+)) [µg/mL] | Solubility [1] | FIC Index (E. coli (NDM-1+)) | also measured |
| --- | --- | --- | --- | --- | --- |
| O=[N+]([O-])[O-].O=[N+]([O-])[O-].[Bi+3].c1ccc(-c2ccccn2)nc1.c1ccc(-c2ccccn2)nc1 [Complex 16] | 8 | 2 | – | – | – |
| O.O.O=C([O-])CN(CC(=O)[O-])CC(=O)[O-].[Bi+3] [Complex 11] | 8 | 4 | – | – | – |
| bismuth subgallate [Complex 14] | 8 | 4 | Insoluble | 0.375 | – |
| O=[N+]([O-])[O][Bi]([O][N+](=O)[O-])[O][N+](=O)[O-] [Bi(NO3)3] | 4 | 2 | – | 0.266 | MBC of MER with Bi(III) compound (K. pneumonia (NDM-1+)): 1 µg/mL; MIC of MER with Bi(III) compound (K. pneumonia (NDM-1+)): 1 µg/mL; FIC Index (K. pneumonia (NDM-1+)): 0.125; IC50 (VIM-2): 2450 ± 630 nM; IC50 (NDM-1): 1890 ± 230 nM; MBC of MER with Bi(III) compound (E. coli (IMP-4+); [2]): 8 µg/mL; MIC of MER with Bi(III) compound (E. coli (IMP-4+); [2]): 4 µg/mL; FIC Index (E. coli (IMP-4+); MER with Bi(III) compound, E. coli (IMP-4+)): 0.313; MBC of MER with Bi(III) compound (E. coli (VIM-2+); [3]): 2 µg/mL; MIC of MER with Bi(III) compound (E. coli (VIM-2+); [3]): 1 µg/mL; FIC Index (E. coli (VIM-2+); MER with Bi(III) compound, E. coli (VIM-2+)): 0.063; MBC of MER with Bi(III) compound (C. freundii (NDM-1+); [4]): 4 µg/mL; MIC of MER with Bi(III) compound (C. freundii (NDM-1+); [4]): 2 µg/mL; FIC Index (C. freundii (NDM-1+); MER with Bi(III) compound, C. freundii (NDM-1+)): 0.375 |
| [Bi+3].[O-]c1c([O-])c(Br)c(Br)c(Br)c1Br.[O-]c1c([O-])c(Br)c(Br)c(Br)c1Br [Complex 13] | 2 | 1 | DMSO | 0.250 | – |
| C1=CC2=C(c3ccccc3)c3ccc4[n]3[Bi+][n]3c(ccc3=C(c3ccccc3)C3=NC(=C4c4ccccc4)C=C3)=C(c3ccccc3)C1=N2 [Complex 1] | 8 | 4 | – | 0.266 | MBC of MER with Bi(III) compound (K. pneumonia (NDM-1+)): 16 µg/mL; MIC of MER with Bi(III) compound (K. pneumonia (NDM-1+)): 4 µg/mL; FIC Index (K. pneumonia (NDM-1+)): 0.375 |
| CNC(=C[N+](=O)[O-])NCCSCc1ccc(CN(C)C)o1.O=C([O-])CC(O)(CC(=O)[O-])C(=O)[O-].[Bi+3] [RBC, ranitidine bismuth citrate] | 4 | 2 | – | – | – |
| O=C(O)c1ccccc1[S-].O=C([O-])c1ccccc1[S-].[Bi+3] [Complex 7] | 2 | 1 | DMSO | 0.250 | – |
| NCC(=O)[O-].NCC(=O)[O-].NCC(=O)[O-].[Bi+3] [Complex 18] | 16 | 8 | – | – | – |
